According to PubChem BioAssay (NCI):
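All cell lines were grown in 96-well plates and treated with compound for 48 hours. GI50 marks 50% less growth. Definition used: TGI = concentration required for complete inhibition of growth.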

Key:
Experiment in all cases: DTP human tumour cell line panel, 48 h
SNB-75 CNS = system: SNB-75 CNS
NCI-H23 lung = system: NCI-H23 lung
786-0 renal = system: 786-0 renal
RXF 393 renal = system: RXF 393 renal
HCT-15 colon = system: HCT-15 colon
EKVX NSCLC = system: EKVX NSCLC
COLO 205 colon = system: COLO 205 colon
HOP-92 NSCLC = system: HOP-92 NSCLC
SW-620 colon = system: SW-620 colon
SF-295 CNS = system: SF-295 CNS
UACC-257 melanoma = system: UACC-257 melanoma
A549 NSCLC = system: A549 NSCLC
HS 578T breast = system: HS 578T breast
U251 CNS = system: U251 CNS
CCRF-CEM leukemia = system: CCRF-CEM leukemia
UO-31 renal = system: UO-31 renal
SK-MEL-28 melanoma = system: SK-MEL-28 melanoma
SN12C renal = system: SN12C renal
IGROV1 ovarian = system: IGROV1 ovarian
OVCAR-5 ovarian = system: OVCAR-5 ovarian
OVCAR-8 ovarian = system: OVCAR-8 ovarian
CAKI-1 renal = system: CAKI-1 renal
MALME-3M melanoma = system: MALME-3M melanoma
OVCAR-3 ovarian = system: OVCAR-3 ovarian
SK-OV-3 ovarian = system: SK-OV-3 ovarian
ACHN renal = system: ACHN renal
MOLT-4 leukemia = system: MOLT-4 leukemia
RPMI-8226 leukemia = system: RPMI-8226 leukemia
NCI-H460 lung = system: NCI-H460 lung
LOX IMVI melanoma = system: LOX IMVI melanoma
KM12 colon = system: KM12 colon
MCF7 breast = system: MCF7 breast
HCC-2998 colon = system: HCC-2998 colon
BT-549 breast = system: BT-549 breast
K-562 leukemia = system: K-562 leukemia
MDA-MB-468 breast = system: MDA-MB-468 breast
HOP-62 NSCLC = system: HOP-62 NSCLC
HL-60(TB) leukemia = system: HL-60(TB) leukemia
NCI-H522 lung = system: NCI-H522 lung
SNB-19 CNS = system: SNB-19 CNS
SK-MEL-5 melanoma = system: SK-MEL-5 melanoma
HT29 colon = system: HT29 colon
SF-539 CNS = system: SF-539 CNS
SF-268 CNS = system: SF-268 CNS
HCT-116 colon = system: HCT-116 colon
SK-MEL-2 melanoma = system: SK-MEL-2 melanoma
T-47D breast = system: T-47D breast
MDA-MB-435 = system: MDA-MB-435
A498 renal = system: A498 renal
MDA-MB-231 breast = system: MDA-MB-231 breast
DU-145 prostate = system: DU-145 prostate
OVCAR-4 ovarian = system: OVCAR-4 ovarian
M14 melanoma = system: M14 melanoma
PC-3 prostate = system: PC-3 prostate
NCI-H226 lung = system: NCI-H226 lung
TK-10 renal = system: TK-10 renal
UACC-62 melanoma = system: UACC-62 melanoma
SR leukemia = system: SR leukemia

For `Cc1ccc(C(=O)Nc2cc(-n3ccnc3C)cc(C(F)(F)F)c2)cc1C#Cc1cnc2cccnn12`, the GI50 (SNB-75 CNS) was 2.98 µM, the TGI (SNB-75 CNS) was 8.74 µM and the GI50 (NCI-H23 lung) was 1.53 µM. It also gave a TGI (NCI-H23 lung) of 12.2 µM, a GI50 (786-0 renal) of 4.02 µM and a TGI (786-0 renal) of 11.9 µM. For the same compound, the GI50 (RXF 393 renal) was 1.64 µM, the TGI (RXF 393 renal) was 6.11 µM and the GI50 (HCT-15 colon) was 2.44 µM. For the same compound, the TGI (HCT-15 colon) was greater than 29.3 µM, the GI50 (EKVX NSCLC) was 6.85 µM and the TGI (EKVX NSCLC) was greater than 29.3 µM. It also gave a GI50 (COLO 205 colon) of 1.7 µM, a TGI (COLO 205 colon) of 15.6 µM and a GI50 (HOP-92 NSCLC) of 0.918 µM. It also gave a TGI (HOP-92 NSCLC) of 4.61 µM, a GI50 (SW-620 colon) of 2.43 µM and a TGI (SW-620 colon) greater than 29.3 µM. The GI50 (SF-295 CNS) was 3.13 µM, the TGI (SF-295 CNS) was 8.7 µM and the GI50 (UACC-257 melanoma) was 1.78 µM. It also gave a TGI (UACC-257 melanoma) of 8.74 µM, a GI50 (A549 NSCLC) of 3.01 µM and a TGI (A549 NSCLC) of 13.5 µM. It also gave a GI50 (HS 578T breast) of 1.12 µM, a TGI (HS 578T breast) of 7.31 µM and a GI50 (U251 CNS) of 4.23 µM. The TGI (U251 CNS) was 13.4 µM, the GI50 (CCRF-CEM leukemia) was 3.45 µM and the TGI (CCRF-CEM leukemia) was greater than 29.3 µM. For the same compound, the GI50 (UO-31 renal) was 1.13 µM, the TGI (UO-31 renal) was 6.17 µM and the GI50 (SK-MEL-28 melanoma) was 0.898 µM. The TGI (SK-MEL-28 melanoma) was 4.47 µM, the GI50 (SN12C renal) was 0.948 µM and the TGI (SN12C renal) was 5.97 µM. For the same compound, the GI50 (IGROV1 ovarian) was 2.62 µM, the TGI (IGROV1 ovarian) was 23.2 µM and the GI50 (OVCAR-5 ovarian) was 1.27 µM. The TGI (OVCAR-5 ovarian) was 8.91 µM, the GI50 (OVCAR-8 ovarian) was 3.49 µM and the TGI (OVCAR-8 ovarian) was 11.1 µM. For the same compound, the GI50 (CAKI-1 renal) was 1.76 µM, the TGI (CAKI-1 renal) was 6.52 µM and the GI50 (MALME-3M melanoma) was 0.25 µM. For the same compound, the TGI (MALME-3M melanoma) was 1.73 µM, the GI50 (OVCAR-3 ovarian) was 9.25 µM and the TGI (OVCAR-3 ovarian) was 29.1 µM. For the same compound, the GI50 (SK-OV-3 ovarian) was 5.64 µM, the TGI (SK-OV-3 ovarian) was 14.9 µM and the GI50 (ACHN renal) was 2.49 µM. It also gave a TGI (ACHN renal) of 6.69 µM, a GI50 (MOLT-4 leukemia) of 2.42 µM and a TGI (MOLT-4 leukemia) greater than 29.3 µM. It also gave a GI50 (RPMI-8226 leukemia) of 1.27 µM, a TGI (RPMI-8226 leukemia) of 15 µM and a GI50 (NCI-H460 lung) of 3.68 µM. It also gave a TGI (NCI-H460 lung) of 10.8 µM, a GI50 (LOX IMVI melanoma) of 0.702 µM and a TGI (LOX IMVI melanoma) of 4.35 µM. The GI50 (KM12 colon) was 0.131 µM, the TGI (KM12 colon) was 24.6 µM and the GI50 (MCF7 breast) was 5.06 µM. For the same compound, the TGI (MCF7 breast) was greater than 29.3 µM, the GI50 (HCC-2998 colon) was 2.55 µM and the TGI (HCC-2998 colon) was 11 µM. The GI50 (BT-549 breast) was 3.4 µM, the TGI (BT-549 breast) was 8.39 µM and the GI50 (K-562 leukemia) was 0.00293 µM. The TGI (K-562 leukemia) was greater than 29.3 µM, the GI50 (MDA-MB-468 breast) was 6.89 µM and the TGI (MDA-MB-468 breast) was 19.7 µM. The GI50 (HOP-62 NSCLC) was 1.88 µM, the TGI (HOP-62 NSCLC) was 9.67 µM and the GI50 (HL-60(TB) leukemia) was 0.257 µM. For the same compound, the TGI (HL-60(TB) leukemia) was greater than 29.3 µM, the GI50 (NCI-H522 lung) was 2.74 µM and the TGI (NCI-H522 lung) was 9.44 µM. It also gave a GI50 (SNB-19 CNS) of 6.09 µM, a TGI (SNB-19 CNS) of 19.1 µM and a GI50 (SK-MEL-5 melanoma) of 3.33 µM. For the same compound, the TGI (SK-MEL-5 melanoma) was 8.81 µM, the GI50 (HT29 colon) was 0.848 µM and the TGI (HT29 colon) was 4.94 µM. For the same compound, the GI50 (SF-539 CNS) was 0.916 µM, the TGI (SF-539 CNS) was 4 µM and the GI50 (SF-268 CNS) was 4 µM. For the same compound, the TGI (SF-268 CNS) was 16.4 µM, the GI50 (HCT-116 colon) was 1.31 µM and the TGI (HCT-116 colon) was 8.25 µM. It also gave a GI50 (SK-MEL-2 melanoma) of 0.84 µM, a TGI (SK-MEL-2 melanoma) of 4.62 µM and a GI50 (T-47D breast) of 4.24 µM. The TGI (T-47D breast) was 12.6 µM, the GI50 (MDA-MB-435) was 3.07 µM and the TGI (MDA-MB-435) was 14.7 µM. For the same compound, the GI50 (A498 renal) was 3.26 µM, the TGI (A498 renal) was 9.74 µM and the GI50 (MDA-MB-231 breast) was 0.364 µM. The TGI (MDA-MB-231 breast) was 3.2 µM, the GI50 (DU-145 prostate) was 5.23 µM and the TGI (DU-145 prostate) was 23.1 µM. It also gave a GI50 (OVCAR-4 ovarian) of 4.51 µM, a TGI (OVCAR-4 ovarian) of 16.3 µM and a GI50 (M14 melanoma) of 0.924 µM. For the same compound, the TGI (M14 melanoma) was 24.4 µM, the GI50 (PC-3 prostate) was 4.51 µM and the TGI (PC-3 prostate) was 15.3 µM. The GI50 (NCI-H226 lung) was 1.23 µM, the TGI (NCI-H226 lung) was 6.47 µM and the GI50 (TK-10 renal) was 4.27 µM. For the same compound, the TGI (TK-10 renal) was 14 µM, the GI50 (UACC-62 melanoma) was 0.756 µM and the TGI (UACC-62 melanoma) was 4.13 µM. It also gave a GI50 (SR leukemia) of 2.44 µM and a TGI (SR leukemia) greater than 29.3 µM.
